Experimental data: patent publication US4703110A, “Benzoic acid derivatives having a para substituent which is a substituted phenyl group connected by a linking radical; useful in neoplastic cell differentiation and diagnosis” (Shudo; Koichi, priority 1984, dated 1987)

How the values were obtained:
[1] = system: human acute promyelocytic leukemia cells (HL-60); test: Differentiation of HL-60 cells, morphological changes of nuclei (Wright-Giemsa); format: cell-based; details: HL-60, 4 days; test concentration not stated
Procedure: The HL-60 cells are cultured in plastic flasks in RPMI-1640 medium supplemented with 5% heat inactivated fetal calf serum and antibiotics (penicillin G and streptomycin). The cells (3×10^4 /ml) were cultured with a compound of the present invention for 4 days. Growth inhibition of the cells by the test compounds was determined by counting the number of cells by microscope and relative ratio was examined by taking the number of cells by control (without test compound) as 100%. The cells are fixed and stained with Wright-Giemsa to examine the morphological changes of the nuclei.

[2] = system: human acute promyelocytic leukemia cells (HL-60); test: Reduction of nitro-blue tetrazolium (NBT) by treated HL-60 cells; format: cell-based; details: HL-60, 5 days incubation, TPA 200 ng/ml, 0.1% NBT, 20 minutes at 37° C.
Procedure: The biochemical activity of cells treated with the compound was measured as follows:
The cells after 5 days incubation are centrifuged and diluted with RPMI-1640 medium supplemented with 5% fetal calf serum, to provide a definite number of the cells. To the diluted cell suspension are then added 200 ng/ml of […] (TPA) and the resulting culture medium is then incubated for 20 minutes at 37° C. in the presence of 0.1% of NBT. Thus, the mature differentiated cells containing blue-black formazan is counted by microscopy, so that the ratio of the cells having the ability to reduce NBT, to total cells, can be calculated.

[3] = system: HL-60 transplanted to nude mice; test: Treatment of nude mice transplanted with HL-60; format: in vivo, nude mouse (BALB/c, nu/nu); details: per os, 200 mg/kg/day, days 9, 14 and 17 after transplantation; measured 4, 6, 8 and 11 days after first administration
Procedure: A test of treatment of nude mice, to which HL-60 have been transplanted, with a compound of the present invention is performed as follows:
A test compound (e.g., p-(5,6,7,8-tetrahydro-5,5,8,8-tetramethyl-2-naphthylcarbamoyl)benzoic acid) is suspended in 10% (v/v) Tween 80 in a concentration of 10 mg/ml. Cells (5×10^7) of HL-60 were transplanted subcutaneously to a nude mouse (BALB/c, nu/nu female Nihon Clea).
At the end of days 9, 14 and 17 after the transplantation, 0.1 ml of the suspension per 10 g of body weight of mouse were administrated per os two times at intervals of 7 hours (200 mg/kg/day).

Row | SMILES | Banded and Segmented Neutrophils [1] [%] | Myelocytes and Metamyelocytes [1] [%] | Promyelocytes [1] [%] | Reductivity of NBT [2] [%] | Tumor growth [3]
1 | CCc1ccc(C(=O)C=Cc2ccc(C(=O)OC)cc2)cc1CC [H Et Et H H OCH3 drawing 7] | 8 | 54 | 38 | 72 | –
2 | COC(=O)c1ccc(C2OC2c2ccc3c(c2)C(C)(C)CCC3(C)C)cc1 (stereo not shown) [H drawing 10 H H OCH3 drawing 9] | 18 | 63 | 19 | 78 | –
3 | COC(=O)c1ccc(C2OC2(C)c2ccc3c(c2)C(C)(C)CCC3(C)C)cc1 (stereo not shown) [H drawing 10 H H OCH3 drawing 11] | 9 | 79 | 12 | 81 | –
4 | CC1(C)CCC(C)(C)c2cc([N+]([O-])=Nc3ccc(C(=O)O)cc3)ccc21 [H drawing 12 H H OH drawing 13] | 7 | 53 | 40 | 70 | –
5 | COC(=O)c1ccc(C2OC2c2cccc(C(C)(C)C)c2)cc1 (stereo not shown) [H tBu H H H OCH3 drawing 9] | 9 | 69 | 20 | 70 | –
6 | CC(C)(C)c1cc(C(=O)C=Cc2ccc(C(=O)O)cc2)cc(C(C)(C)C)c1 [No. 8] | 16 | 82 | 2 | 95 | –
7 | CC(C)(C)c1ccc(C(=O)C=Cc2ccc(C(=O)O)cc2)cc1 [No. 9] | 6 | 48 | 46 | 68 | –
8 | CC1(C)CCC(C)(C)c2cc(C(=O)C=Cc3ccc(C(=O)O)cc3)ccc21 [No. 11] | 12 | 86 | 2 | 95 | –
9 | COC(=O)c1ccc(C=CC(=O)c2ccc3c(c2)C(C)(C)CCC3(C)C)cc1 [No. 13] | 4 | 91 | 5 | 97 | –
10 | CC(C)c1ccc(NC(=O)c2ccc(C(=O)O)cc2)cc1C(C)C [No. 30] | 11 | 82 | 7 | 90 | –
11 | COC(=O)c1ccc(C(=O)Nc2ccc3c(c2)C(C)(C)CCC3(C)C)cc1 [No. 34] | 12 | 85 | 3 | 97 | –
12 | CC1(C)CCC(C)(C)c2cc(NC(=O)c3ccc(C(=O)O)cc3)ccc21 [No. 35, p-(5,6,7,8-tetrahydro-5,5,8,8-tetramethyl-2-naphthylcarbamoyl)benzoic acid] | 19 | 78 | 3 | 98 | tumor growth was clearly suppressed
13 | CC(C)c1ccc(N=Nc2ccc(C(=O)O)cc2)cc1C(C)C [No. 50] | 11 | 50 | 39 | 55 | –
14 | COC(=O)c1ccc(N=Nc2ccc3c(c2)C(C)(C)CCC3(C)C)cc1 [No. 57] | 10 | 49 | 41 | 60 | –
15 | CC1=C(/C=C/C(C)=C/C=C/C(C)=C/C(=O)O)C(C)(C)CCC1 [Retinoic acid, reference compound] | 4 | 71 | 25 | 75 | –
